These results are taken from PMC3140574 (Journal of immunology (Baltimore, Md. : 1950), 2011).

The target of assay [1] is HLA-A*0201 (Homo sapiens, UniProt P04439, D140Y/D185E/D98H/E176V/E277Q/G131W/G231S/I119V/I121R/I166T/I218V/L300P/L318F/N151K/N90K/P208A/P217A/Q86G/Q94H/R138H/R169H/T345S). In words: HLA-A*0201-peptide binding.
Assay [2] has as its system splenocytes of ML1419c p113-121 immunized HLA-A2tg mice. It is filed as cell-based.

Where a SMILES comes first, the peptide text is derived from it.

One may read the IC50 as the concentration that inhibits the measured activity by half. Higher therefore signals weaker potency in that assay. `CC(C)C[C@H](NC(=O)[C@@H](NC(=O)[C@@H](NC(=O)CNC(=O)[C@H](CC(=O)O)NC(=O)[C@H](CC(C)C)NC(=O)[C@@H](N)CCCNC(=N)N)[C@@H](C)O)[C@@H](C)O)C(=O)N[C@@H](CCC(=O)O)C(=O)N[C@H](C(=O)O)C(C)C` [ML1419c p113-121, RLDGTTLEV] (H-RLDGTTLEV-OH): in assay [1], the IC50 was determined as 35 nM.
Turning to concanavalin A [conA], in assay [2], the IFN-γ stood at 5112 pg/mL, the IL-6 was 299 pg/mL, the IP-10 is 251 pg/mL and the MIG amounted to 533 pg/mL. In assay [2], this compound gave an MIP-β of 787 pg/mL, a TNF-α of 33 pg/mL and a VEGF of 83 pg/mL.
